Assay results: US11452717B2, “Small molecule activators of nicotinamide phosphoribosyltransferase (NAMPT) and uses thereof” (Sanford Burnham Prebys Medical Discovery Institute, priority 2017, dated 2022)

Tests used:
[1] = system: human smooth muscle cells; conditions: serial quantification of the proportion of cells with senescence-associated beta-galactosidase activity; cited from earlier work
NAMPT enzyme = NAMPT enzyme (Homo sapiens (Human), UniProt P43490); assay: Enzyme Assay and NMN Detection (NAMPT reaction, fluorescence detection of NMN); format: biochemical; conditions: NAMPT activation, NMN formation
How it was run: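 NMN formed was read at ex380/em460 after acetophenone/KOH derivatization and formic acid addition, using a same-day calibration curve. Final conditions: NAMPT 16 nM, nicotinamide 5 uM, PRPP 6.25 uM, ATP 120 uM, pyrophosphatase 0.04 U/ml, pH 7.5 HEPES buffer with MgCl2 and TCEP, 2 h at room temperature.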

[2] = adult mice, specific deletion of NAMPT; administration of the NAD precursor; cited from earlier work

NAMPT enzyme, sequence (P43490 whole entry, species assumed): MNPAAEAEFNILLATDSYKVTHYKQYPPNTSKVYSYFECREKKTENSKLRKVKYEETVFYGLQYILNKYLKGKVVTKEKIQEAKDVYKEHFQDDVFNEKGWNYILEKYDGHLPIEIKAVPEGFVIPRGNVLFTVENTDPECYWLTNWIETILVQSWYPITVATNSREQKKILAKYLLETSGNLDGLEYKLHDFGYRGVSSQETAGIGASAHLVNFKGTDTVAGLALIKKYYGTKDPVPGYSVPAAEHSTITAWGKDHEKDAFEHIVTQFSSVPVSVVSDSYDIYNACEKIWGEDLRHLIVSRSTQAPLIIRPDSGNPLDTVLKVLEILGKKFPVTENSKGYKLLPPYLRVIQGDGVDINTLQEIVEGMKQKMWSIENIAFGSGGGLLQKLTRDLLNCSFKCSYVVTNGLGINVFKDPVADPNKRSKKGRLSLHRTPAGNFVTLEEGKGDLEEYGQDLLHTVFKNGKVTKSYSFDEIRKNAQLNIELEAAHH

Structure (SMILES) | EC50 (NAMPT enzyme; Table B-2) [nM] | further results
O=C(/C=C/c1cccnc1)NCCCCC1CCN(C(=O)c2ccccc2)CC1 [FK866] | – | senescence in smooth muscle cells [1]: induced premature senescence
CCCNC(=O)c1ccc(NC(=O)NCc2ccncc2)cc1 [N-propyl-4-(3-(pyridin-4-ylmethyl)ureido)benzamide] | 2000 to 5000 | –
O=C(NCc1cn[nH]c1)Nc1ccc(NS(=O)(=O)c2ccccc2)cc1 [N-{4-[3-(1H-Pyrazol-4-ylmethyl)-ureido]-phenyl}-benzenesulfonamide] | – | EC50 (NAMPT enzyme; Table B-1): < 100 nM
O=C(NCc1ccncc1)Nc1ccc(S(=O)(=O)N2CCc3cc(C(F)(F)F)ccc3C2)cc1 [Pyridin-4-ylmethyl-3-[4-(6-trifluoromethyl-3,4-dihydro-1H-isoquinoline-2-sulfonyl)-phenyl]-urea] | 100 to 2000 | –
O=C(NCc1ccncc1)Nc1ccc(S(=O)(=O)N2CCc3cccc(C(F)(F)F)c3C2)cc1 [Pyridin-4-ylmethyl-3-[4-(8-trifluoromethyl-3,4-dihydro-1H-isoquinoline-2-sulfonyl)-phenyl]-urea] | 100 to 2000 | –
O=C(NCc1ccncc1)Nc1ccc(S(=O)(=O)N2CCCC2)cc1 [Pyridin-4-ylmethyl-3-[4-(pyrrolidine-1-sulfonyl)-phenyl]-urea] | 100 to 2000 | –
O=C(NCc1ccncc1)Nc1ccc(S(=O)(=O)c2nccs2)cc1 [Pyridin-4-ylmethyl-3-[4-(thiazole-2-sulfonyl)-phenyl]-urea] | – | EC50 (NAMPT enzyme; Table B-6): 100 to 2000 nM
NC(=O)c1ccc[n+]([C@@H]2O[C@H](CO)[C@@H](O)[C@H]2O)c1 [nicotinamide riboside] | – | exercise performance, mass and strength of muscle [2]: rapidly and uniformly restored
